Molecular target: T1, GlyT1 (Homo sapiens, UniProt P48067)
T1 construct: expressed in transfected cells
T1 sequence (P48067 1-706): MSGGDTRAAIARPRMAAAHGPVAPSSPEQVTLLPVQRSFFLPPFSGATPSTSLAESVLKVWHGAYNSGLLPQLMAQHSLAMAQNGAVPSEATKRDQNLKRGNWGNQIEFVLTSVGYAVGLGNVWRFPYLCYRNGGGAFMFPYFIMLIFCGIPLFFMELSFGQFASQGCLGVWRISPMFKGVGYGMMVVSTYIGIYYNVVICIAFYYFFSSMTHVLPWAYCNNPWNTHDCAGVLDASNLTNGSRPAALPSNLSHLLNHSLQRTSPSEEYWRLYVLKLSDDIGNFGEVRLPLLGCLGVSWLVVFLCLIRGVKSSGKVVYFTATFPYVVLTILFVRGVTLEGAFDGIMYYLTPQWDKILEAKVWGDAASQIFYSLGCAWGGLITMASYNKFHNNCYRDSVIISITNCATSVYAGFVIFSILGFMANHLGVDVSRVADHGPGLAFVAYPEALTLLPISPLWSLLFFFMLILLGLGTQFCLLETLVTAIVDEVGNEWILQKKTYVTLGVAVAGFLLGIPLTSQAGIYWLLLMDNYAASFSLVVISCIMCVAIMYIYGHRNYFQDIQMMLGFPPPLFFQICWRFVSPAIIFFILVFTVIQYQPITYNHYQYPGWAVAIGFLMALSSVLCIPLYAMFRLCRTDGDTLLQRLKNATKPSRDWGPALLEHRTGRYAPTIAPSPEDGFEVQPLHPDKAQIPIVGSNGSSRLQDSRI
Experiment: Glycine Transporter 1 (GlyT1) uptake assay, scintillation proximity assay of [14C]-glycine uptake
Type: cell-based
Settings: [14C]-glycine uptake; read-out: GlyT1 (pIC50) (converted)
Method in brief: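 IC50 values were derived by four-parameter logistic fitting of counts. The 2× compound solutions were made by 1:100 dilution into HBSS of DMSO serial dilutions.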

Row | SMILES | IC50
1 | COc1c(C#N)ccc(OC(C)C(F)(F)F)c1C(=O)N1CC(O)(c2ccc(C(F)(F)F)cc2)C1 (centres unmarked) [Example 64, 3-({3-Hydroxy-3-[4-(trifluoromethyl)phenyl]azetidin-1-yl}carbonyl)-2-methoxy-4-[(1,1,1-trifluoropropan-2-yl)oxy]benzonitrile] | 100 to 1000 nM
2 | COc1c(C#N)ccc(OC(C)C(F)(F)F)c1C(=O)N1CC(c2ccc(F)cn2)C1 (centres unmarked) [Example 65, 3-{[3-(5-Fluoropyridin-2-yl)azetidin-1-yl]carbonyl}-2-methoxy-4-[(1,1,1-trifluoropropan-2-yl)oxy]benzonitrile] | < 100 nM
3 | CC(Oc1ccc(C#N)c(Cl)c1C(=O)N1CC(c2ccc(F)cn2)C1)C(F)(F)F (centres unmarked) [Example 66, 2-Chloro-3-{[3-(5-fluoropyridin-2-yl)azetidin-1-yl]carbonyl}-4-[(1,1,1-trifluoropropan-2-yl)oxy]benzonitrile] | 100 to 1000 nM
4 | COc1c(C#N)ccc(OC(C)C(F)(F)F)c1C(=O)N1CC(Oc2ccc(F)c(F)c2)C1 (centres unmarked) [Example 67, 3-{[3-(3,4-Difluorophenoxy)azetidin-1-yl]carbonyl}-2-methoxy-4-[(1,1,1-trifluoropropan-2-yl)oxy]benzonitrile] | 1000 to 10000 nM
5 | CC(Oc1ccc(C#N)c(Cl)c1C(=O)N1CC(Oc2ccc(F)c(F)c2)C1)C(F)(F)F (centres unmarked) [Example 68, 2-Chloro-3-{[3-(3,4-difluorophenoxy)azetidin-1-yl]carbonyl}-4-[(1,1,1-trifluoropropan-2-yl)oxy]benzonitrile] | 100 to 1000 nM
6 | COc1c(C#N)ccc(O[C@@H](C)C(F)(F)F)c1C(=O)N1CC(F)(c2ccc(C(F)(F)F)cc2)C1 [Example 69, 3-({3-Fluoro-3-[4-(trifluoromethyl)phenyl]azetidin-1-yl}carbonyl)-2-methoxy-4-{[(2S)-1,1,1-trifluoropropan-2-yl]oxy}benzonitrile] | 100 to 1000 nM
7 | COc1c(C#N)ccc(O[C@@H](C)C(F)(F)F)c1C(=O)N1CC(F)(c2ccc(F)c(F)c2)C1 [Example 70, 3-{[3-(3,4-Difluorophenyl)-3-fluoroazetidin-1-yl]carbonyl}-2-methoxy-4-{[(2S)-1,1,1-trifluoropropan-2-yl]oxy}benzonitrile] | 100 to 1000 nM
8 | CC(Oc1ccc(C#N)c(Cl)c1C(=O)N1CC(c2cccnc2)C1)C(F)(F)F (centres unmarked) [Example 71, 2-Chloro-3-{[3-(pyridin-3-yl)azetidin-1-yl]carbonyl}-4-[(1,1,1-trifluoropropan-2-yl)oxy]benzonitrile] | 100 to 1000 nM
9 | CC(Oc1ccc(C#N)c(Cl)c1C(=O)N1CC(c2ccncc2)C1)C(F)(F)F (centres unmarked) [Example 72, 2-Chloro-3-{[3-(pyridin-4-yl)azetidin-1-yl]carbonyl}-4-[(1,1,1-trifluoropropan-2-yl)oxy]benzonitrile] | 100 to 1000 nM
10 | CC(Oc1ccc(C#N)c(Cl)c1C(=O)N1CC(Oc2ccc(F)cc2)C1)C(F)(F)F (centres unmarked) [Example 73, 2-Chloro-3-{[3-(4-fluorophenoxy)azetidin-1-yl]carbonyl}-4-[(1,1,1-trifluoropropan-2-yl)oxy]benzonitrile] | < 100 nM
11 | COc1c(C#N)ccc(OC(C)C(F)(F)F)c1C(=O)N1CC(Oc2ccc(F)cc2)C1 (centres unmarked) [Example 74, 3-{[3-(4-Fluorophenoxy)azetidin-1-yl]carbonyl}-2-methoxy-4-[(1,1,1-trifluoropropan-2-yl)oxy]benzonitrile] | 100 to 1000 nM
12 | COc1c(C#N)ccc(OC(C)C(F)(F)F)c1C(=O)N1CC(c2ccncc2)C1 (centres unmarked) [Example 75, 2-Methoxy-3-{[3-(pyridin-4-yl)azetidin-1-yl]carbonyl}-4-[(1,1,1-trifluoropropan-2-yl)oxy]benzonitrile] | 1000 to 10000 nM
13 | CC(Oc1ccc(C#N)c(Cl)c1C(=O)N1CC(Oc2ccccc2)C1)C(F)(F)F (centres unmarked) [Example 76, 2-Chloro-3-[(3-phenoxyazetidin-1-yl)carbonyl]-4-[(1,1,1-trifluoropropan-2-yl)oxy]benzonitrile] | 1000 to 10000 nM
14 | Cc1ccc(OC2CN(C(=O)c3c(OC(C)C(F)(F)F)ccc(C#N)c3Cl)C2)cc1 (centres unmarked) [Example 77, 2-Chloro-3-{[3-(4-methylphenoxy)azetidin-1-yl]carbonyl}-4-[(1,1,1-trifluoropropan-2-yl)oxy]benzonitrile] | 1000 to 10000 nM
